Values of other authors in patent US8053463B2, “PPAR active compounds” (Plexxikon Inc., priority 2007, dated 2011).

Assays:
PPARδ = target: T1, PPARδ (Homo sapiens, UniProt Q03181)
T1 sequence (Q03181 1-441): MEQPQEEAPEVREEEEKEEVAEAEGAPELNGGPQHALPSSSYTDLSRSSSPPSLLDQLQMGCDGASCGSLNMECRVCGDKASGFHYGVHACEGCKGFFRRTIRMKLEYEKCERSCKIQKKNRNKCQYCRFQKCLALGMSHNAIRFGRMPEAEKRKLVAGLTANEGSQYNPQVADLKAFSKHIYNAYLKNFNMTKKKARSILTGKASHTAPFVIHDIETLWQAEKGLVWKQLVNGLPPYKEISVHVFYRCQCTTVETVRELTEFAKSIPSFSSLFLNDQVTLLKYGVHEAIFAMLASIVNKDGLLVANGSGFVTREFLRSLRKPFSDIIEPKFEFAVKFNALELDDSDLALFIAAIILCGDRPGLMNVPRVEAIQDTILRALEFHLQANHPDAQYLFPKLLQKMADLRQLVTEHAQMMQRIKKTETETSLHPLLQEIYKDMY

murine PPARα = target: T2, murine PPARα (Mus musculus, UniProt P23204)
T2 sequence (P23204 1-468): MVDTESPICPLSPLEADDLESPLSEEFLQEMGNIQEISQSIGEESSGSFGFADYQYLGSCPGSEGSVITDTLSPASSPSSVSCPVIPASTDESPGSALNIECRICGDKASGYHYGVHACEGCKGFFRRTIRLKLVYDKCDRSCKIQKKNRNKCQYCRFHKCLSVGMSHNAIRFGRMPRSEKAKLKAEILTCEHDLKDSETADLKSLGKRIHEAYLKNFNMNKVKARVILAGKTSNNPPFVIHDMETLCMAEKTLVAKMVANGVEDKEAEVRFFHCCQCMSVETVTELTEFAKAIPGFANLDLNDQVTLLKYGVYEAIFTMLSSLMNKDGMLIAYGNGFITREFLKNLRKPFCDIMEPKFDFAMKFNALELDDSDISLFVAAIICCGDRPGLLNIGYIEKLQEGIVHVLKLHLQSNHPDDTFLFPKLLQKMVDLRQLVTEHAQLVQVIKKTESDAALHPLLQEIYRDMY

CCCc1c(OCCCOc2ccc(OCC(=O)O)cc2)ccc(C(C)=O)c1O [Compound L-165041]
agonist selectivity for PPARδ over PPARγ (PPARδ): approximately 30 fold | activity on murine PPARα (murine PPARα): inactive
